Test results: patent US7189708B2, “Topical composition for skin” (Kao Corporation, priority 1999, dated 2007)
Peptide text beside a SMILES is read from it.

Key:
[1] = test system: C3H mice; experiment: Hair growth suppression in mouse (shaved back, topical application); format: in vivo; conditions: 100 μL twice a day on shaved back, area of hair regrowth after three weeks relative to control; for response vs control in vivo at 0.1 %: Mus musculus, topical, 504 h, 0.1% in 80% ethanol, read-out: Hair-growth suppression ratio; for Hair-growth suppression ratio: 1% in 80% ethanol
Procedure: Hair Growth Suppression in Mouse
The hair on a portion of the backs (size: 2 cm×4 cm) of groups of six-week-old C3H mice, each group consisting of five mice, was carefully shaved so as not to injure the skin using an electric clipper and electric shaver. To the thus-shaved portion, a sample was applied in an amount of 100 μL twice a day for four weeks. Test compounds were dissolved in a solvent (80% ethanol) to attain the concentrations shown in Table 3, to thereby prepare samples. In the control group, only the solvent was applied to the shaved portion. After three weeks, in order to observe hair regrowth, the shaved portion was photographed at a certain magnification, and the ratio of the area of hair regrowth (i.e., the ratio of the area of hair regrowth to that of the shaved area) was compared with that of the control group using an image analyzer. The hair growth suppression ratio (%) was represented by a relative value when the ratio of the area of the hair regrowth in the control group was taken as 100.

[2] = test system: hairless mouse (HR/ICR); experiment: Suppression of wrinkle formation in hairless mouse (UV-B exposure, topical application); conditions: 100 μL on back after daily UV-B, 20 weeks, visual rating 0 (no wrinkle) to 4 (deep wrinkles), control 3.06 ± 0.13
Procedure: Immediately after the exposure, an 80% ethanol solution (100 μL) containing a 0.1% test compound was applied to the back. The above procedure was carried out daily for 20 weeks. […] In the control group, only 80% ethanol was applied to the back of each mouse during the test. After the test, wrinkle formation was visually observed, and the degree of wrinkle formation was evaluated against the following ratings (wrinkle index).
1: A few shallow wrinkles were formed.
2: A slight amount of wrinkles was formed.
3: Some wrinkles were formed.
4: Deep wrinkles were formed.

[3] = test system: SD male rats; experiment: Maintenance of skin elasticity in rat (UV-B exposed hind limb pads; cutometer and SEM linearity of elastic fibers); format: in vivo; set-up: Ue value / Uf value: unit not given here; conditions: for Ue value / Uf value: 10 μL on pad after UV-B, three times a week, six weeks, cutometer 500 hPa; for Ue value: solvent only 0.02125, no treatment 0.03294; for Uf value: solvent only 0.03333, no treatment 0.04833; for Linearity: linearity of elastic fibers A/(B×C) from SEM micrographs of rat pad, linear = 1, solvent only 0.5133, no treatment 0.7345
Procedure: Maintenance of Skin Elasticity in Rat
Three-week-old SD male rats were classified into three groups (five rats per group): a group of rats to which an 80% ethanol solution containing a test compound was applied to pads of hind limbs; a group of rats to which a solvent (80% ethanol) was applied to the pads; and a group of non-treated rats. Each pad was exposed to UV-B rays (less than 1 MED), and then the test compound-containing solution or the solvent was applied to the pad in an amount of 10 μL. The above procedure was carried out three times a week (every other day of the week days) for six weeks.
Skin elasticity was determined using a cutometer (model: SES575, product of Courage Kazaka) as follows. The skin of the pad was subjected to suction at 500 hPa for three seconds, and then released for three seconds. The displacement over six seconds was measured, to thereby obtain Ue and Uf values. The measurement was repeated five times for each pad.
The linearity of elastic fibers was analyzed according to the method of Imokawa et al. (J. Invest. Dermatol., 105, 254–258(1995)) through image analysis of an SEM micrograph. Specifically, samples for scanning electron microscopy (SEM) were prepared by fixing the pad of a rat with Mercox (product of Dainippon Ink and Chemicals, Inc.) under reflux, followed by digestion with formic acid. From SEM micrographs (×1000) of each of the samples, ten typical micrographs were selected and enlarged copies were made. Each of the enlarged micrographs was divided into 16 uniform regions. From each of the regions, any one of the elastic fibers was selected and traced on a transparent film with a line having a fixed width (width: 8 pixels). When the area surrounded by the line tracing the elastic fiber is called A, and the longitudinal length and lateral length of the minimum rectangle surrounding the trace are called B and C, respectively, the linearity of the elastic fiber is represented by A/(B×C). For example, when the trace of the elastic fiber is linear, the linearity becomes 1.

[4] = 0.1% test compound in 80% ethanol
[5] = 1% test compound in 80% ethanol

Which response vs control in vivo at 0.1 % [1] does the source give for CC(=O)N[C@@H](Cc1ccccc1)C(=O)NCCC(=O)O [Compound 6] here?
Its response vs control in vivo at 0.1 % is 58.3%.

And the “Wrinkle Index” value [2, 4]?
The value was 2.57 ± 0.20.

What about the Ue value ([3]; 0.1% in 80% ethanol) of the same compound?
Its Ue value is 0.02433 ± 0.00921.

And the Uf value ([3]; 0.1% in 80% ethanol)?
The Uf value was 0.03913 ± 0.00924.

And the Linearity ([3]; 0.1%)?
The Linearity was 0.6078 ± 0.0195.

How did the response vs control in vivo at 0.1 % [1] turn out when O=C(O)CN[C@@H](Cc1ccccc1)C(=O)N[C@@H](CC(=O)O)C(=O)O [Compound 5] was run?
Its response vs control in vivo at 0.1 % is 71%.

What about the “Wrinkle Index” value [2, 4] of the same compound?
The value was 2.21 ± 0.14.

What about the Ue value ([3]; 0.1% in 80% ethanol) of the same compound?
The Ue value was 0.02694 ± 0.00157.

What about the Uf value ([3]; 0.1% in 80% ethanol) of the same compound?
Its Uf value is 0.04285 ± 0.00271.

What about the Linearity ([3]; 0.1%) of the same compound?
The Linearity was 0.6652 ± 0.0239.

Which results are given for N[C@@H](Cc1ccccc1)C(=O)NCCC(=O)O [Compound 12, Phe-β-Ala]?
Hair-growth suppression ratio [1]: 90.4%; Wrinkle Index [2, 5]: 1.98 ± 0.20; Ue value ([3]; 1% in 80% ethanol): 0.03326 ± 0.01267; Uf value ([3]; 1% in 80% ethanol): 0.04572 ± 0.01862; Linearity ([3]; 1%): 0.7197 ± 0.0321

Which response vs control in vivo at 0.1 % [1] does the source give for CN(C)[C@@H](Cc1ccccc1)C(=O)NCCC(=O)O [Compound 7] here?
The response vs control in vivo at 0.1 % was 69.6%.

What about the “Wrinkle Index” value [2, 4] of the same compound?
The value was 2.34 ± 0.10.

What about the Ue value ([3]; 0.1% in 80% ethanol) of the same compound?
The Ue value was 0.02623 ± 0.00874.

And the Uf value ([3]; 0.1% in 80% ethanol)?
The Uf value was 0.0412 ± 0.00258.

What about the Linearity ([3]; 0.1%) of the same compound?
The Linearity was 0.6423 ± 0.0433.

How did the Hair-growth suppression ratio [1] turn out when N[C@@H](Cc1ccccc1)C(=O)N[C@@H](CC(=O)O)C(=O)O [Compound 16, Phe-Asp] (H-Phe-Asp-OH) was run?
Its Hair-growth suppression ratio is 75.2%.

And the “Wrinkle Index” value [2, 5]?
The value was 2.50 ± 0.15.

Which results are given for C[C@H](NC(=O)[C@H](Cc1ccccc1)NCC(=O)O)C(=O)O [Compound 4]?
response vs control in vivo at 0.1 % [1]: 80.5%; Wrinkle Index [2, 4]: 1.75 ± 0.12; Ue value ([3]; 0.1% in 80% ethanol): 0.03009 ± 0.00274; Uf value ([3]; 0.1% in 80% ethanol): 0.04533 ± 0.00971; Linearity ([3]; 0.1%): 0.7153 ± 0.0329

With O=C(O)CCCNC(=O)[C@H](Cc1ccccc1)NCC(=O)O [Compound 2] as the compound, how does the response vs control in vivo at 0.1 % [1] read?
Its response vs control in vivo at 0.1 % is 73.3%.

What about the “Wrinkle Index” value [2, 4] of the same compound?
Its value is 2.01 ± 0.14.

What does the source list for CC(C)C[C@H](NC(=O)[C@@H](N)Cc1ccccc1)C(=O)O [Compound 14, Phe-Leu] (H-Phe-Leu-OH)?
Hair-growth suppression ratio [1]: 70.9%; Wrinkle Index [2, 5]: 2.82 ± 0.22

For O=C(O)CCNC(=O)[C@H](Cc1ccccc1)NCC(=O)O [Compound 1, N-(carboxymethyl)phenylalanyl-β-alanine], which response vs control in vivo at 0.1 % [1] is on record?
Its response vs control in vivo at 0.1 % is 82.4%.

And the “Wrinkle Index” value [2, 4]?
The value was 1.25 ± 0.11.

What about the Ue value ([3]; 0.1% in 80% ethanol) of the same compound?
The Ue value was 0.03153 ± 0.00523.

What about the Uf value ([3]; 0.1% in 80% ethanol) of the same compound?
The Uf value was 0.04711 ± 0.00213.

What about the Linearity ([3]; 0.1%) of the same compound?
Its Linearity is 0.7221 ± 0.0299.

Which Hair-growth suppression ratio [1] does the source give for N[C@@H](Cc1ccccc1)C(=O)NCC(=O)O [Compound 11, Phe-Gly] (H-Phe-Gly-OH) here?
The Hair-growth suppression ratio was 32.9%.

What about the “Wrinkle Index” value [2, 5] of the same compound?
The value was 2.82 ± 0.18.

How did the response vs control in vivo at 0.1 % [1] turn out when CC(C)C[C@H](NC(=O)[C@H](Cc1ccccc1)NCC(=O)O)C(=O)O [Compound 3] was run?
Its response vs control in vivo at 0.1 % is 72.3%.

What about the “Wrinkle Index” value [2, 4] of the same compound?
Its value is 1.82 ± 0.09.

And the Ue value ([3]; 0.1% in 80% ethanol)?
The Ue value was 0.02985 ± 0.01021.

And the Uf value ([3]; 0.1% in 80% ethanol)?
The Uf value was 0.04323 ± 0.01722.

What about the Linearity ([3]; 0.1%) of the same compound?
Its Linearity is 0.7013 ± 0.06551.

For NC(Cc1ccccc1)C(=O)NCCS(=O)(=O)O (stereo not drawn) [Compound 17, Phe-Tau], which Hair-growth suppression ratio [1] is on record?
Its Hair-growth suppression ratio is 79.5%.

And the “Wrinkle Index” value [2, 5]?
The value was 1.99 ± 0.12.

What about the Ue value ([3]; 1% in 80% ethanol) of the same compound?
The Ue value was 0.02894 ± 0.0114.

What about the Uf value ([3]; 1% in 80% ethanol) of the same compound?
The Uf value was 0.04369 ± 0.00872.

What about the Linearity ([3]; 1%) of the same compound?
Its Linearity is 0.6913 ± 0.0341.

Which response vs control in vivo at 0.1 % [1] does the source give for CCCN[C@@H](Cc1ccccc1)C(=O)NCCC(=O)O [Compound 8] here?
The response vs control in vivo at 0.1 % was 77.8%.

What about the “Wrinkle Index” value [2, 4] of the same compound?
Its value is 2.03 ± 0.09.

What about the Ue value ([3]; 0.1% in 80% ethanol) of the same compound?
Its Ue value is 0.02708 ± 0.00119.

And the Uf value ([3]; 0.1% in 80% ethanol)?
Its Uf value is 0.0427 ± 0.00657.

What about the Linearity ([3]; 0.1%) of the same compound?
The Linearity was 0.6976 ± 0.0422.

CC(C)C[C@H](NCC(=O)O)C(=O)NCCC(=O)O [Compound 9] was tested. Which response vs control in vivo at 0.1 % [1] did it give?
The response vs control in vivo at 0.1 % was 77.1%.

What about the “Wrinkle Index” value [2, 4] of the same compound?
The value was 2.11 ± 0.11.

And the Ue value ([3]; 0.1% in 80% ethanol)?
Its Ue value is 0.02793 ± 0.00697.

What about the Uf value ([3]; 0.1% in 80% ethanol) of the same compound?
The Uf value was 0.04295 ± 0.00836.

And the Linearity ([3]; 0.1%)?
Its Linearity is 0.6892 ± 0.0157.

Which Hair-growth suppression ratio [1] does the source give for N[C@@H](Cc1ccccc1)C(=O)N[C@@H](Cc1ccccc1)C(=O)O [Compound 13, Phe-Phe] (H-Phe-Phe-OH) here?
The Hair-growth suppression ratio was 78.5%.

What about the “Wrinkle Index” value [2, 5] of the same compound?
The value was 2.64 ± 0.16.
